Literature values as cited in US6696551B1, “225Ac-HEHA and related compounds, methods of synthesis and methods of use” (The United States of America as represented by the …, priority 1999, dated 2004).

SMILES: O=C(O)CN(CC(=O)O)[C@H](Cc1ccc([N+](=O)[O-])cc1)CN(CC(=O)O)[C@H]1CCCC[C@@H]1N(CC(=O)O)CC(=O)O (relative stereo) [CHXA″-DTPA, N[(R)-2-amino-3-(4-nitrophenyl)propyl]-trans-(S,S)-cyclohexane-1,2-diamine-N,N,N′,N″,N″-pentaacetic acid]
- maximum tolerated dose (MTD) (^225Ac chelate, mice): approximately 100 kBq
- mouse mortality (higher doses, within eight days): 100%
